Drawing on US7659277B2, “Ubiquitin ligase inhibitors and methods related thereto” (Proteologies, Ltd., priority 2003, dated 2010), this text covers IC50 and remaining activity for 18 compounds.

SMILES strings stand for the structures. Read-outs that look alike come from different tables or passages of the source.

In test [1] the target is T1, POSH (Homo sapiens, UniProt Q7Z6J0).
T1 construct: GST-POSH lot NB81/p.118 3.6 mg/ml; fused on or other part: GST tag, used for detection with anti-GST XL665
T1 sequence (Q7Z6J0 1-269 limits assumed): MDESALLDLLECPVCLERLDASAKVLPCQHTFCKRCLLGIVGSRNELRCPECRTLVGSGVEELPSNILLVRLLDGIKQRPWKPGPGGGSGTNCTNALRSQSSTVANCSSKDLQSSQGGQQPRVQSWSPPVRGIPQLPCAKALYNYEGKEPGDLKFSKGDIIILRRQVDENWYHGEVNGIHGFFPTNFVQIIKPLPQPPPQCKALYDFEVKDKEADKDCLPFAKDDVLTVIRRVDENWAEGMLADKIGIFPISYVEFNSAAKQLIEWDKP
Nature of the test: IC50 assay procedure: GST-POSH auto-ubiquitination, homogeneous time-resolved fluorescence (Ub-cryptate / anti-GST XL665). It counts as biochemical. The following applies: ubiquitin ligase activity of POSH; GST-POSH 33 nM, 30 min preincubation. The method in brief: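 GST-POSH (33 nM) preincubated 30 min at RT with compounds (DMSO dilution series), then added to E1/E2/Eu-cryptate-ubiquitin enzyme mix for 30 min at 37 °C. Stopped with EDTA, anti-GST XL665 added 45 min at RT; HTRF signal of POSH auto-ubiquitination read, triplicates, IC50 from concentration series.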

In test [2] the target is Hmdm2 (Homo sapiens, UniProt Q00987). Kind of test: Selectivity (% A in 1 μM), ubiquitin ligase activity of Hmdm2. It counts as biochemical. Conditions: read-out: Selectivity (% A* in 1 μM) Hmdm2.
Chain of Hmdm2 (Q00987 whole entry): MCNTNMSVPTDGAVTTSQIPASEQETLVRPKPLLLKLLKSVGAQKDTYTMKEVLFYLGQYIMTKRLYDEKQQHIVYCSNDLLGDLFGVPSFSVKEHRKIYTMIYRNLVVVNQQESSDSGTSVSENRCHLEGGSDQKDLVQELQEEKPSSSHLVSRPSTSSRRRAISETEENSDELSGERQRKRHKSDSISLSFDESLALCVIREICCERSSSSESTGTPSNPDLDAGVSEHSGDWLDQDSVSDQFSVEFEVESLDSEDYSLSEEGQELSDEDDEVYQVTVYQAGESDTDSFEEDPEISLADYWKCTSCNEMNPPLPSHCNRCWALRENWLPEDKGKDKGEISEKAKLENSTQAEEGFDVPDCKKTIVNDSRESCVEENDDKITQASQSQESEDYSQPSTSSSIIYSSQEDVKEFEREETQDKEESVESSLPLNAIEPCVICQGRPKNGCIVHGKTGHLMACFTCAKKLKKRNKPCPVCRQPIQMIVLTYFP
Where [3] appears, read: % activity at 1 μM compound, control is related to 100% activity, HTS protocol.

A word on the IC50: it is the concentration that inhibits the measured activity by half. Low values mean inhibition by little substance, high ones a need for much substance. In test [1], `CN(C)c1ccc(/C=C2/C(=O)NC(=O)N(C3CCCCC3)C2=O)cc1` [Compound 3] came in with an IC50 of 900 nM. For the same compound, the remaining activity at 1 µM in test [2] (setting [3]) was 102%.

In test [1], `O=C1NC(=O)N(c2ccccc2)C(=O)/C1=C\c1ccc2c(c1)OCO2` [Compound 4] yielded an IC50 of 800 nM. For the same compound, the remaining activity at 1 µM in test [2] (setting [3]) was found to be 105%.

As for `O=C(O)COc1ccc2c(c1)oc(=O)c1ccccc12` [Compound 85], in test [1], the IC50 worked out at 700 nM. Moreover, in test [2], the remaining activity at 1 µM amounted to 94%.

Compound `Cc1cc(O)c(C(=O)/C=C/c2cccc(I)c2)c(=O)o1` [Compound 87] returned an IC50 in test [1] of 800 nM. Besides, the remaining activity at 1 µM in test [2] worked out at 119%.

Take `O=C(NC(C(Cl)(Cl)Cl)S(=O)(=O)c1ccccc1)c1ccc(Cl)cc1Cl` (stereo not drawn) [Compound 88]: the midpoint of inhibition in test [1], the IC50, lay at 250 nM. In addition, in test [2], the remaining activity at 1 µM is 118%.

`COc1ccc(C(=O)CC2=C(O)C(=O)c3ccccc3C2=O)cc1` [Compound 89] yielded an IC50 in test [1] of 1000 nM. Besides, the remaining activity at 1 µM in test [2] (setting [3]) is 79%.

The compound `O=C1c2ccccc2-c2nc3nonc3nc21` [Compound 91] gave an IC50 in test [1] of 300 nM. For the same compound, in test [2], the remaining activity at 1 µM came out at 62%.

In turn, `O=C(/C=C/c1cccnc1)c1ccc(C(=O)/C=C/c2cccnc2)cc1` [Compound 92] showed an IC50 in test [1] of 500 nM. For the same compound, the remaining activity at 1 µM in test [2] (setting [3]) was determined as 105%.

The compound `Cc1ccc(C(=O)NN=C2CCC(=NNC(=O)c3ccc(C)cc3)CC2)cc1` [Compound 93] yielded an IC50 in test [1] of 1300 nM. Further, the remaining activity at 1 µM in test [2] (setting [3]) came out at 106%.

`O=C(Cc1ccccc1)N1N=CCC1(O)c1ccc(F)cc1` (stereo not drawn) [Compound 94] registered an IC50 in test [1] of 1000 nM. The remaining activity at 1 µM in test [2] (setting [3]) came to 103%.

`Cc1[nH]c(=O)c(C(=O)/C=C/c2ccccc2F)c2c1CCCC2` [Compound 95]: in test [1], the IC50 came to 1000 nM. Further, in test [2] (setting [3]), the remaining activity at 1 µM worked out at 98%.

As for `O=c1oc2ccccc2c(O)c1C(=S)Nc1ccccc1` [Compound 96], in test [1], the IC50 came to 500 nM. Further, the remaining activity at 1 µM in test [2] worked out at 90%.

In the case of `O=C(Nc1cccc2c(NC(=O)C3C4CCCCC43)cccc12)C1C2CCCCC21` (stereo not drawn) [Compound 97], in test [1], the IC50 turned out to be 600 nM. In addition, the remaining activity at 1 µM in test [2] was determined as 123%.

Turning to `COC(=O)C1=C(C(=O)OC)SC(=C2C(=S)C(C)(C)N(C(C)=O)c3cc(C)ccc32)S1` [Compound 99], the IC50 in test [1] stood at 1500 nM. The remaining activity at 1 µM in test [2] (setting [3]) came out at 101%.

Regarding `COc1ccc(Nc2ccc(O)c3c2C(=O)c2ccccc2C3=O)cc1` [Compound 100], half-maximal inhibition in test [1] (IC50) was put at 700 nM. The remaining activity at 1 µM in test [2] (setting [3]) came to 75%.

As for `COc1cc(C2Nc3ccccc3NC3=C2C(=O)CC(C)(C)C3)cc(Br)c1O` (stereo not drawn) [Compound 102], in test [1], half-maximal inhibition (IC50) required 800 nM. Also, the remaining activity at 1 µM in test [2] (setting [3]) was found to be 97%.

Compound `Cc1cc(OC(=O)Cn2c(=O)sc3ccccc32)ccc1Cl` [Compound 103] showed an IC50 in test [1] of 400 nM. Besides, the remaining activity at 1 µM in test [2] is 100%.

In test [1], `O=C(NCc1ccc(Cl)cc1)C(=O)Nc1ccccc1` [Compound 104] had an IC50 of 1000 nM. For the same compound, the remaining activity at 1 µM in test [2] (setting [3]) stood at 145%.
